Laboratory results from PubChem BioAssay AID2060493 (Molecular Pharmacology Branch, DTP, NCI, 2025).
Values joined by “and” are separate entries in the source; they are usually repeats but may differ in a detail not shown here. Equal values may be shown once.

Test system: 616215-338-R-J1-PDC tumor spheroids, viability
Experiment: Anticancer human tumor 616215-338-R-J1-PDC patient-derived colon adenocarcinoma cell line growth inhibition [GQUAD]
Details: spheroids with HUVEC and MSC; for viability, T/C: stronger effect = lower value
From the text: DNA G-quadruplex Stabilizer Agents in Combinations in Complex Spheroids
A high-throughput screen of multi-cell type tumor spheroids was designed to identify active combinations of DNA G-quadruplex stabilizer agents and targeted small molecules. Complex spheroids include a stromal component modeled by human endothelial cells (HUVEC) and fibroblasts modeled by human mesenchymal stem cells (MSCs). The concentration ranges selected for each drug and investigational agent were based upon clinically achievable concentrations if the clinical Cmax of the agent was known.
Compounds. The drugs and investigational agents: pidnarulex (CX-5461; NSC782164), APTO-253 (NSC789042), BRACO-19 (NSC847499), peposertib (NSC802822), ceralasertib (NSC780249), elimusertib (NSC800525), camonsertib (NSC841442), AZD-1390 (NSC803789), olaparib (NSC753686), talazoparib (NSC767125), ART-558 (NSC835418), sotorasib (NSC818433), MRTX-1133 (NSC836407), SN-38 (NSC673596), topotecan (NSC609699), etoposide (NSC141540), doxorubicin (NSC123127), gemcitabine (NSC613327), 5-fluorouracil (NSC19893), paclitaxel (NSC125973), vemurafenib (NSC761431), panobinostat (NSC761190), R-306465 (JNJ-16241199; NSC773264), adavosertib (NSC754352), TP-3654 (NSC805149), carboplatin (NSC241240), KSQ-4279 (NSC840948), and staurosporine (NSC755774) were obtained from the National Cancer Institute (NCI) Developmental Therapeutics Program Chemical Repository (34). The FDA-approved anticancer drug set is available from the NCI Developmental Therapeutics Program. […] The stock solutions were prepared in dimethyl sulfoxide (DMSO, Sigma-Aldrich, St. Louis, MO, cat. D2650) at 800-fold the tested concentration and stored at -70 degrees C prior to their use. All drugs and investigational agents were tested over a range starting from a high concentration at or near the clinical Cmax and decreasing in half-log increments. If the clinical Cmax for an agent had not been determined, the highest concentration tested was 10 microM.
2.3 Cell Culture. All cells were maintained in an incubator at 37 degrees C and 5% CO2 with 95% humidity. The PDC lines were cultured according to standard operating procedures established by the NCI PDMR. All PDCs were thawed and cultured in Matrigel-coated flasks prepared with a working solution of 1X Ham's F-12 nutrient mix, without supplementation (Invitrogen, cat. 11765054), 100 U/mL penicillin-streptomycin (Invitrogen, cat. 15140122), and 2.5% Matrigel (Corning Inc., cat. 354248) for the first three passages. The 857933-349-R-J2-PDC line was cultured in 6C/Colon 1B media, which includes advanced DMEM/F-12 (Thermo Fisher Scientific, cat. 12634028), 10 mM HEPES (Thermo Fisher Scientific, cat. 15630080), 1X GlutaMAX supplement (Thermo Fisher Scientific, cat. 35050061), 0.1 mg/mL primocin (InvivoGen, cat. ant-pm-2), 10% defined fetal bovine serum, heat inactivated (HyClone Laboratories Inc., cat. SH30070.03HI), 50% L-WRN conditioned media (ATCC, cat. CRL-3276), 1.25 mM N-Acetyl-L-cysteine (Sigma-Aldrich, cat. A9165), 10 mM nicotinamide (Sigma-Aldrich, cat. N0636), 1X B-27 supplement (Thermo Fisher Scientific, cat. 17504044), 1X N-2 supplement (Thermo Fisher Scientific, cat. 17502048), 10 microM Y-27632 dihydrochloride (Tocris Bioscience, cat. 1254), and 50 ng/mL human EGF recombinant protein (Thermo Fisher Scientific, cat. PHG0311). The 485176-168-R4-J1-PDC line was cultured in Panc media, which includes all 6C/Colon 1B media components plus 100 ng/mL human FGF-10 (Thermo Fisher Scientific, cat. 100-26), 500 nM SB-431542 (Selleckchem, cat. S1067), and gastrin (Tocris, cat. 3006).
[…]

[1] = curve of first compound, second compound 0.0316 µM
[2] = curve of first compound, second compound 0.1 µM
[3] = curve of first compound, second compound 0.316 µM
[4] = curve of first compound, second compound 1 µM
[5] = curve of first compound, second compound 3.16 µM
[6] = curve of first compound, second compound 10 µM
[7] = second compound 0.0316 µM, first compound 0.0316 µM
[8] = second compound 0.0316 µM, first compound 0.316 µM
[9] = second compound 0.1 µM, first compound 0.0316 µM
[10] = second compound 0.1 µM, first compound 0.316 µM
[11] = second compound 0.316 µM, first compound 0.0316 µM
[12] = second compound 0.316 µM, first compound 0.316 µM
[13] = second compound 1 µM, first compound 0.0316 µM
[14] = second compound 1 µM, first compound 0.316 µM
[15] = second compound 3.16 µM, first compound 0.0316 µM
[16] = second compound 3.16 µM, first compound 0.316 µM
[17] = second compound 10 µM, first compound 0.0316 µM
[18] = second compound 10 µM, first compound 0.316 µM
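Further: spheroids exposed to agents for 7 days before readout.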
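Wherever viability, T/C is given: percent viability relative to DMSO vehicle control wells taken as 100%.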

Cn1ncnc1[C@H]1c2n[nH]c(=O)c3cc(F)cc(c23)N[C@@H]1c1ccc(F)cc1 + CN(C)c1ccc(Nc2c3ccc(NC(=O)CCN4CCCC4)cc3nc3cc(NC(=O)CCN4CCCC4)ccc23)cc1
IC50 [1]: > 0.316 µM | IC50 [2]: > 0.316 µM | IC50 [3]: > 0.316 µM | IC50 [4]: > 0.316 µM | IC50 [5]: > 0.316 µM | IC50 [6]: > 0.316 µM | viability, T/C (second compound 0.0316 µM, first compound 0.000999 µM): 103% | viability, T/C (second compound 0.0316 µM, first compound 0.00316 µM): 101% | viability, T/C (second compound 0.0316 µM, first compound 0.00999 µM): 99.7% | viability, T/C [7]: 104% | viability, T/C (second compound 0.0316 µM, first compound 0.0999 µM): 112% | viability, T/C [8]: 97% | viability, T/C (second compound 0.1 µM, first compound 0.000999 µM): 99.5% | viability, T/C (second compound 0.1 µM, first compound 0.00316 µM): 113% | viability, T/C (second compound 0.1 µM, first compound 0.00999 µM): 104% | viability, T/C [9]: 99.8% | viability, T/C (second compound 0.1 µM, first compound 0.0999 µM): 95% | viability, T/C [10]: 96.6% | viability, T/C (second compound 0.316 µM, first compound 0.000999 µM): 98.2% | viability, T/C (second compound 0.316 µM, first compound 0.00316 µM): 92.2% | viability, T/C (second compound 0.316 µM, first compound 0.00999 µM): 108% | viability, T/C [11]: 111% | viability, T/C (second compound 0.316 µM, first compound 0.0999 µM): 102% | viability, T/C [12]: 106% | viability, T/C (second compound 1 µM, first compound 0.000999 µM): 100% | viability, T/C (second compound 1 µM, first compound 0.00316 µM): 91.9% | viability, T/C (second compound 1 µM, first compound 0.00999 µM): 104% | viability, T/C [13]: 103% | viability, T/C (second compound 1 µM, first compound 0.0999 µM): 98.1% | viability, T/C [14]: 87.7% | viability, T/C (second compound 3.16 µM, first compound 0.000999 µM): 103% | viability, T/C (second compound 3.16 µM, first compound 0.00316 µM): 92.2% | viability, T/C (second compound 3.16 µM, first compound 0.00999 µM): 94.2% | viability, T/C [15]: 101% | viability, T/C (second compound 3.16 µM, first compound 0.0999 µM): 90.5% | viability, T/C [16]: 95.4% | viability, T/C (second compound 10 µM, first compound 0.000999 µM): 94.4% | viability, T/C (second compound 10 µM, first compound 0.00316 µM): 77.8% | viability, T/C (second compound 10 µM, first compound 0.00999 µM): 91.9% | viability, T/C [17]: 89% | viability, T/C (second compound 10 µM, first compound 0.0999 µM): 90.9% | viability, T/C [18]: 86.7%

C=CCn1c(=O)c2cnc(Nc3ccc(N4CCN(C)CC4)cc3)nc2n1-c1cccc(C(C)(C)O)n1
viability, T/C (compound 0.0316 µM): 106% and 108% and 101% | viability, T/C (compound 0.1 µM): 94.6% and 98.4% and 92.7% | viability, T/C (compound 0.316 µM): 53% and 53.7% and 76.8% | viability, T/C (compound 1 µM): 24.1% and 24.6% and 28.5% | viability, T/C (compound 3.16 µM): 13.3% and 13.7% and 23.5% | viability, T/C (compound 10 µM): 12.5% and 12% and 23.2% | IC50 (curve of compound): 0.367 µM and 0.381 µM and 0.601 µM

CC1COCCN1c1cc(C2(S(C)(=N)=O)CC2)nc(-c2ccnc3[nH]ccc23)n1 (stereo not drawn) + Cc1[nH]c2ccc(F)cc2c1-c1nc2c3cccnc3c3ncccc3c2[nH]1
IC50 [1]: 9.28 µM | IC50 [2]: 6.38 µM | IC50 [3]: 7.03 µM | IC50 [4]: 7.04 µM | IC50 [5]: 6.05 µM | IC50 [6]: 5.79 µM | viability, T/C [7]: 109% | viability, T/C (second compound 0.0316 µM, first compound 0.1 µM): 108% | viability, T/C [8]: 104% | viability, T/C (second compound 0.0316 µM, first compound 1 µM): 96.1% | viability, T/C (second compound 0.0316 µM, first compound 3.16 µM): 81.5% | viability, T/C (second compound 0.0316 µM, first compound 10 µM): 47.2% | viability, T/C [9]: 105% | viability, T/C (second compound 0.1 µM, first compound 0.1 µM): 116% | viability, T/C [10]: 104% | viability, T/C (second compound 0.1 µM, first compound 1 µM): 110% | viability, T/C (second compound 0.1 µM, first compound 3.16 µM): 69.2% | viability, T/C (second compound 0.1 µM, first compound 10 µM): 37.6% | viability, T/C [11]: 92.6% | viability, T/C (second compound 0.316 µM, first compound 0.1 µM): 110% | viability, T/C [12]: 99.8% | viability, T/C (second compound 0.316 µM, first compound 1 µM): 101% | viability, T/C (second compound 0.316 µM, first compound 3.16 µM): 69.7% | viability, T/C (second compound 0.316 µM, first compound 10 µM): 41.3% | viability, T/C [13]: 90.7% | viability, T/C (second compound 1 µM, first compound 0.1 µM): 110% | viability, T/C [14]: 102% | viability, T/C (second compound 1 µM, first compound 1 µM): 95.5% | viability, T/C (second compound 1 µM, first compound 3.16 µM): 81.5% | viability, T/C (second compound 1 µM, first compound 10 µM): 36.1% | viability, T/C [15]: 107% | viability, T/C (second compound 3.16 µM, first compound 0.1 µM): 93.6% | viability, T/C [16]: 92.2% | viability, T/C (second compound 3.16 µM, first compound 1 µM): 98.7% | viability, T/C (second compound 3.16 µM, first compound 3.16 µM): 69.5% | viability, T/C (second compound 3.16 µM, first compound 10 µM): 35% | viability, T/C [17]: 119% | viability, T/C (second compound 10 µM, first compound 0.1 µM): 105% | viability, T/C [18]: 93.3% | viability, T/C (second compound 10 µM, first compound 1 µM): 95.1% | viability, T/C (second compound 10 µM, first compound 3.16 µM): 68.4% | viability, T/C (second compound 10 µM, first compound 10 µM): 32.5%

COc1ncnc(C2CC2)c1-c1ncc2cnn(Cc3ccc(-c4nc(C(F)(F)F)cn4C(C)C)cc3)c2n1
viability, T/C (compound 0.0316 µM): 113% and 96.4% and 110% | viability, T/C (compound 0.1 µM): 108% and 109% and 97.3% | viability, T/C (compound 0.316 µM): 99.2% and 103% and 102% | viability, T/C (compound 1 µM): 116% and 99.7% and 105% | viability, T/C (compound 3.16 µM): 106% and 100% (2×) | viability, T/C (compound 10 µM): 106% and 92.4% and 93.6% | IC50 (curve of compound): > 10 µM
